Here are results for eleven compounds from US20220177947A1, “Compounds to Identify Beta-Lactamases, and Methods of Use Thereof” (priority 2019, published 2022).

Read-outs that look alike come from different tables or passages of the source.

Experiment [1] concerns Enterobacteriaceae isolates. The format is cell-based. Particulars: for resistance in the isolates (in words): all Enterobacteriaceae isolates, excluding intrinsic resistance. The protocol:
Urine culture, organism identification, AST, and ESBL confirmatory testing. Standard microbiological procedures were performed by the clinical laboratory as part of routine care for all urine samples used in this study, per the clinical laboratory's standard operating procedures. First, 1 μL or 10 μL of urine sample was plated on standard agar plates (blood agar and eosin methylene blue agar biplate), then visually inspected the next day for significant growth indicative of a UTI (≥10^4 CFU/mL cutoff applied). The MiscroScan WalkAway system (Beckman Coulter) was utilized for bacterial identification and AST of GNB and select GPB causing UTI. […] AST interpretations were based on CLSI's 2017 guidelines.

Experiment [2] concerns the target T1, SHV-1 (Klebsiella pneumoniae, UniProt P0AD64). Particulars: cited from earlier work.
Experiment [3] has as its target T1, SHV-1. The note with it: cited from earlier work. The source holds these as a separate data set.
Experiment [4] relates to K. pneumoniae clinical isolates. Kind of experiment: DETECT with β-lactamase inhibitors (clavulanic acid). The format is cell-based. The note with it: original score/inhibitor score, 30 min. As for the experimental part: (§1) A solution of sodium clavulanate was prepared to 1 mg/400 μL in “buffer 1”, and 4 μL of this solution was added to both the sample and control well for each isolate tested, two min prior to addition of β-lactamase probe or acetonitrile to the sample and control well, respectively. […]

The test system of experiment [5] is E. coli clinical isolates. The experiment is described as above. The format is cell-based. Particulars: original score/inhibitor score, 30 min. As for the experimental part: as §1
In experiment [6] the target is B. cereus I (Bacillus cereus, UniProt P00809). Particulars: cited from earlier work.
B. cereus I, sequence (P00809 28-306): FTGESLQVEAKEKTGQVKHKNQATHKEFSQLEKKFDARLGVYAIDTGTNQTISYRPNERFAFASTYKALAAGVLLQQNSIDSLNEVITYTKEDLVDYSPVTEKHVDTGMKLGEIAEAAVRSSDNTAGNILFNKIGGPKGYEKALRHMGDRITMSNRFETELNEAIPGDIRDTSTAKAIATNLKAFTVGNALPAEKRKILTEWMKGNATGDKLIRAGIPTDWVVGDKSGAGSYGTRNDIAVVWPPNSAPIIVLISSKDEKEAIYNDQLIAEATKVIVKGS
Experiment [7] addresses T2, TEM-1 (Escherichia coli, UniProt P62593). Particulars: cited from earlier work.
The target of experiment [8] is T2, TEM-1. Particulars: cited from earlier work. The source holds these as a separate data set.
In experiment [9] the target is S. aureus PC1 (Staphylococcus aureus, UniProt P00807). Particulars: cited from earlier work.
S. aureus PC1, sequence (P00807 25-281): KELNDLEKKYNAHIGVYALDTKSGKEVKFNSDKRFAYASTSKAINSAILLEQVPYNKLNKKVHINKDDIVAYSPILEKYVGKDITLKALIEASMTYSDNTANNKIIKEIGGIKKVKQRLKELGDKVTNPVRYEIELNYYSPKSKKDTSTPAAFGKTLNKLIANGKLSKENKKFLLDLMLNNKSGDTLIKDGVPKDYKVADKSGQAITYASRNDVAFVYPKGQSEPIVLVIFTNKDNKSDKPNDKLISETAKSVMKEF

T2 sequence (P62593 24-286 limits assumed): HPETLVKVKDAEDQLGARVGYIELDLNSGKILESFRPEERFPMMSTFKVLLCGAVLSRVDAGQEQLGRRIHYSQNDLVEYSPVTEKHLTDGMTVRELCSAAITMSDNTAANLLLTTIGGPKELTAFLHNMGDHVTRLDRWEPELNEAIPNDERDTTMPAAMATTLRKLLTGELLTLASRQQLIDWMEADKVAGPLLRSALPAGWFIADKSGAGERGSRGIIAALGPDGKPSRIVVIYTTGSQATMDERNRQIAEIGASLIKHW
T1 sequence (P0AD64 22-286): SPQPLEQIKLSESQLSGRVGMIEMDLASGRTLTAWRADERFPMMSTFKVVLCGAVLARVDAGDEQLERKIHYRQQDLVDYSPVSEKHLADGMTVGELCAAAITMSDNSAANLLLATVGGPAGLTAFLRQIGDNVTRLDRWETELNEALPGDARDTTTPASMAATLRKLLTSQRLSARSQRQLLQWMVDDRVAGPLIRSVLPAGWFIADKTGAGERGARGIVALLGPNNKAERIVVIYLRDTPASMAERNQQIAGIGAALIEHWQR

As for `NCC[C@H](O)C(=O)N[C@@H]1C[C@H](N)[C@@H](O[C@H]2O[C@H](CN)[C@@H](O)[C@H](O)[C@H]2O)[C@H](O)[C@H]1O[C@H]1O[C@H](CO)[C@@H](O)[C@H](N)[C@H]1O` [amikacin], the “resistance identified, number of isolates” value in [1] (CTX-M-producing bacteria) is given as “one”.

With `CO[C@@]1(NC(=O)Cc2cccs2)C(=O)N2C(C(=O)O)=C(COC(N)=O)CS[C@@H]21` [cefoxitin], in experiment [1], the “resistance in the isolates (in words)” value is “rare”.

Take `O=C(O)[C@H]1/C(=C/CO)O[C@@H]2CC(=O)N21` [clavulanic acid]: the “turnover number (tn), inhibitor molecules to inactivate one β-lactamase enzyme” value in [2] is on record as 60; in experiment [6] it was “more than 16,000”; in experiment [7], 160; in [9] it was “one”. Besides, the “IC50 fold lower than that for sulbactam” value was 580 fold in experiment [3] and 60 fold in experiment [8]. In addition, the “Times-change in DETECT score, with clavulanic acid” value (“Times-change in DETECT score” below) was found to be 2.3 in experiment [4] (isolate B7: KPC-2, CTX-M-15, TEM-1B, SHV-11); 2.4 in experiment [4] (isolate B14: KPC-2, CTX-M-9, TEM-1A, SHV-11); 4.4 in experiment [4] (isolate B23: KPC-2, CTX-M-15, TEM-1B, SHV-11, OXA-1); 15.3 in [4] (isolate FB13: CTX-M-15, CTX-M-8, TEM-1A, SHV-25/121, OXA-1); 14.2 in experiment [4] (isolate FB90: CTX-M-15, CTX-M-8, TEM-1A, SHV-25/121, OXA-1); 10.5 in [4] (isolate HAF66: CTX-M-8, TEM-1, SHV-85). Moreover, the “Times-change in DETECT score” value is reported as 8.2 in [4] (isolate HAF102: CTX-M-8, TEM-1, SHV-76); 5.9 in experiment [4] (isolate HCD309: CTX-M-8, TEM-1, SHV-1); 17.6 in experiment [4] (isolate HCD405: CTX-M-15, SHV-25/121, OXA-1); 23.0 in experiment [4] (isolate HON257: CTX-M-2, TEM-15, SHV-25/121); 3.8 in experiment [4] (isolate SF681: CTX-M-15, TEM-1B, SHV-11, OXA-1); 1.6 in experiment [5] (isolate CDC-081: CMY-2, TEM-1B). In addition, the “Times-change in DETECT score” value in [5] (isolate CDC-085: CMY-2) is 1.3; in experiment [5] (isolate CDC-086: CTX-M-14, TEM-1B), 10.7; in experiment [5] (isolate CDC-089: CMY-2) it was 1.6; in experiment [5] (isolate D14: CTX-M-15) it was 5.4; in experiment [5] (isolate D129: CTX-M-2, TEM, SHV) it was 14.2; in experiment [5] (isolate D270: CTX-M-17), 12.9. Moreover, the “Times-change in DETECT score” value in experiment [5] (isolate D304: CTX-M-55/57) was 9.9; in experiment [5] (isolate D333: CTX-M-14/17/18), 10.3; in experiment [5] (isolate D362: CTX-M-15), 4.9; in experiment [5] (isolate D497: CTX-M-15), 3.2; in experiment [5] (isolate D500: CTX-M-27, CMY-2/130), 1.7; in experiment [5] (isolate SF141: CMY-2), 1.5. In addition, the “Times-change in DETECT score” value stood at 16.8 in [5] (isolate SF148: CTX-M-14); 1.2 in experiment [5] (isolate SF207: CMY-2); 5.7 in experiment [5] (isolate SF325: CTX-M-14/17/18, OXA); 4.8 in experiment [5] (isolate SF410: CTX-M-15); 15.5 in [5] (isolate SF468: CTX-M-14, TEM-1); 13.0 in experiment [5] (isolate SF473: CTX-M-14/17/18). Further, the “Times-change in DETECT score” value in experiment [5] (isolate SF487: CTX-M-14) is reported as 9.9; in experiment [5] (isolate SF674: CTX-M-15), 5.8.

In the case of `C[C@H]1COc2c(N3CCN(C)CC3)c(F)cc3c(=O)c(C(=O)O)cn1c23` [levofloxacin], in experiment [1] (CTX-M-producing bacteria), the “resistance identified, number of isolates” value is recorded as 8 and the “resistance identified, percent of isolates” value came to 73%. In [1] (bacteria lacking CTX-Ms), the “resistance identified, number of isolates” value was determined as 13 and the “resistance identified, percent of isolates” value came to 14%.

Take `O=C1CN(/N=C/c2ccc([N+](=O)[O-])o2)C(=O)N1` [nitrofurantoin]: in experiment [1] (CTX-M-producing bacteria), the “resistance identified, number of isolates” value turned out to be 1 and the “resistance identified, percent of isolates” value worked out at 10%. Besides, in experiment [1] (bacteria lacking CTX-Ms), the “resistance identified, number of isolates” value stood at 2 and the “resistance identified, percent of isolates” value came out at 2%.

On to `CC1(C)[C@H](C(=O)O)N2C(=O)C[C@H]2S1(=O)=O` [sulbactam], for which the “turnover number (tn), inhibitor molecules to inactivate one β-lactamase enzyme” value in experiment [2] is listed as 13,000; in experiment [7], 10,000.

As for `CN(C)c1cc(NC(=O)CNC(C)(C)C)c(O)c2c1C[C@H]1C[C@H]3[C@H](N(C)C)C(O)=C(C(N)=O)C(=O)[C@@]3(O)C(O)=C1C2=O` [tigecycline], the “resistance in the isolates (in words)” value in [1] is “no tigecycline-resistant isolates were identified”.

Take `NC[C@H]1O[C@H](O[C@H]2[C@H](O)[C@@H](O[C@H]3O[C@H](CO)[C@@H](O)[C@H](N)[C@H]3O)[C@H](N)C[C@@H]2N)[C@H](N)C[C@@H]1O` [tobramycin]: the figures for the “resistance identified, number of isolates” value in experiment [1] (CTX-M-producing bacteria) and in experiment [1] (bacteria lacking CTX-Ms) were 5 and 2, respectively. In addition, the “resistance identified, percent of isolates” value in experiment [1] (CTX-M-producing bacteria) turned out to be 45%; in experiment [1] (bacteria lacking CTX-Ms), 2%.

For gentamicin, in experiment [1] (CTX-M-producing bacteria), the “resistance identified, number of isolates” value is recorded as 5 and the “resistance identified, percent of isolates” value turned out to be 45%. Besides, in experiment [1] (bacteria lacking CTX-Ms), the “resistance identified, number of isolates” value is on record as 7 and the “resistance identified, percent of isolates” value was 7%.

As to piperacillin/tazobactam, the “resistance in the isolates (in words)” value in experiment [1] was “not detected”.

On to trimethoprim/sulfamethoxazole, for which the “resistance identified, number of isolates” value is recorded as 8 in [1] (CTX-M-producing bacteria) and 21 in experiment [1] (bacteria lacking CTX-Ms). Further, the “resistance identified, percent of isolates” value stood at 73% in experiment [1] (CTX-M-producing bacteria) and 22% in experiment [1] (bacteria lacking CTX-Ms).
